This note sets out measurements from patent EP0321849A2, “Method for the enzymatic hydrolysis of alpha-aminoadipinyl monoamino compounds” (HOECHST AKTIENGESELLSCHAFT, priority 1987, dated 1989).

Data set [1] addresses T1, γ-GTP (Bacillus subtilis, UniProt P54422). Kind of data set: Inhibition of γ-GTP by inhibitors (irreversible / reversible). It is filed as biochemical. Also on record: Das Enzym kommt in Mikroorganismen periplasmatisch und extrazellulär vor; endogenous in cells; host or cells: Bacteria cultured in nutrient medium (genera Pseudomonas, Proteus, Arthrobacter, Bacillus); preferred Bac. subtilis IFO 3025. The conditions noted are these: in the presence of the substance; kind of inhibition (irreversible or reversible).

Data set [2] deals with T1, γ-GTP. Kind of data set: Enzymatic hydrolysis of α-aminoadipinyl cephalosporins by γ-GTP enzyme concentrate (preparative conversion). Further details: Das so gewonnene Kulturfiltrat enthält 1350 U γ-GTP-Aktivität; endogenous in cells; host or cells: Bacillus subtilis IFO 3025 (natural producer); Culture filtrate, ammonium sulfate precipitation, DEAE-cellulose. It counts as biochemical, Bac. subtilis IFO 3025. How it is done:
Analog Beispiel 1 wird eine Vorkultur mit Bac. subtilis IFO 3025 angezogen. 50 ml dieser Kultur dienen als Inokulum für 2 l Hauptkulturlösung in einem 5 l-Fermenter. Die Anzucht des Stammes erfolgt bei 34°C und einem Sauerstoffpartialdruck von 70 %. Die Bildung der γ-GTP wird photometrisch verfolgt und die Kultur bei maximalem Enzymtiter abgeerntet. Unter den gegebenen Bedingungen wird ein γ-GTP-Titer von 150 mU/ml Kulturlösung erreicht.
9 l Kulturlösung werden mittels Cross-Flow-Filtration (Ausschlußgrenze 300 000 Dalton) in Kulturfiltrat und Zellmasse getrennt. Das so gewonnene Kulturfiltrat enthält 1350 U γ-GTP-Aktivität.
Durch Zugabe von Ammoniumsulfat ad 70 % d. S. wird das Enzym gefällt und in einem 1/10 des Volumens wieder aufgenommen. Nach Dialyse gegen 20 mM Tris, pH 8,0, wird über eine DEAE-Cellulose Säule (DE 52, Whatman) das Enzym weiter gereinigt. Die aktiven Eluate werden vereinigt und konzentriert. Ein so gewonnenes γ-GTP-Präparat (mit ca. 25 U γ-GTP/ml) wird für die Umsetzungen verwendet.
Für eine präparative Umsetzung von Desacetyl-CPC wird folgender Ansatz gewählt: 100 µl Enzymkonzentrat, hergestellt nach Beispiel 3, und 100 µl 40 mM Desacetyl-CPC, gelöst in 20 mM Kaliumphosphatpuffer, pH 7,3 werden bei einer Temperatur von 33°C inkubiert. […]

Substrate in data set [3]: N[C@@H](CCC(=O)Nc1ccc([N+](=O)[O-])cc1)C(=O)O
Description: Km determination of γ-GTP with L-γ-Glutamylparanitroanilid as substrate. The conditions noted are these: other: substrate of γ-GTP, pH 8, 37.0 °C. It counts as biochemical.

For `CC(=O)OCC1=C(C(=O)O)N2C(=O)[C@@H](N)[C@H]2SC1` [7-Aminocephalosporansäure], on γ-GTP [1], the “Hemmung der γ-GTP” value was “reversible Hemmung”. Same read-out and setting: under `[N-]=[N+]=CC(=O)OC[C@H](N)C(=O)O` [Azaserin] stands “irreversibel gehemmt”.

Regarding `CC(=O)OCC1=C(C(=O)O)N2C(=O)[C@@H](NC(=O)CCC[C@@H](N)C(=O)O)[C@H]2SC1` [CPC, Cephalosporin C], the 7-Aminocephalosporansäure released on γ-GTP [2] (incubation conditions as in Beispiel 4 (pH 7,3, 33°C)) turned out to be 3%. As to `N[C@H](CCCC(=O)N[C@@H]1C(=O)N2C(C(=O)O)=C(CO)CS[C@H]12)C(=O)O` [Desacetyl-CPC], on γ-GTP [2] (100 µl enzyme concentrate + 100 µl 40 mM substrate in 20 mM potassium phosphate buffer pH 7,3, 33°C), the Desacetyl-7-Aminocephalosporansäure formed is listed as at most 16%. Take `NC(=O)CI` [Jodacetamid]: the “Hemmung der γ-GTP” value on γ-GTP [1] is on record as “irreversibel gehemmt”. Turning to `[Cu]` [Kupfer], the “Hemmung der γ-GTP” value at γ-GTP [1] is recorded as “reversible Hemmung”. As to `[Hg]` [Quecksilber], at γ-GTP [1], the “Hemmung der γ-GTP” value is “reversible Hemmung”.

B1: γ-Glutamyltranspeptidase (γ-GTP) (Bacillus subtilis subsp. subtilis str. 168) (protein)
chain 1: DEYKQVDVGKDGMVATAHPLASEIGADVLKKGGNAIDAAVAIQFALNVTEPMMSGIGGGGFMMVYDGKTKDTTIIDSRERAPAGATPDMFLDENGKAIPFSERVTKGTAVGVPGTLKGLEEALDKWGTRSMKQLITPSIKLAEKGFPIDSVLAEAISDYQEKLSRTAAKDVFLPNGEPLKEGDTLIQKDLAKTFKLIRSKGTDAFYKGKFAKTLSDTVQDFGGSMTEKDLENYDITIDEPIWGDYQGYQIATTPPPSSGGIFLLQMLKILDHFNLSQYDVRSWEKYQLLAETMHLSYADRASYAGDPEFVNVPLKGLLHPDYIKERQQLINLDQVNKKPKAGDPWKYQEGSANYKQVEQPKDKVEGQ
chain 2: TTHFTVADRWGNVVSYTTTIEQLFGTGIMVPDYGVILNNELTDFDAIPGGANEVQPNKRPLSSMTPTILFKDDKPVLTVGSPGGATIISSVLQTILYHIEYGMELKAAVEEPRIYTNSMSSYRYEDGVPKDVLSKLNGMGHKFGTSPVDIGNVQSISIDHENGTFKGVADSSRNGAAIGINLKRK
notes: Das Enzym kommt in Mikroorganismen periplasmatisch und extrazellulär vor; endogenous in cells; host or cells: Bacteria cultured in nutrient medium (genera Pseudomonas, Proteus, Arthrobacter, Bacillus); preferred Bac. subtilis IFO 3025
Regarding B1, the Km in data set [3] is reported as 17,8 µM.
